Where two headings read alike, the source gives them in different places.
Key:
[1] = Sensitivity of 11 to various ROS (HPLC, formation of 11a); format: physicochemical
Procedure: The CO release profiles in the absence/presence of ROS was studied using HPLC to monitor the consumption of 10/11 and the formation of 10a/11a. Various ROS solutions were prepared according to literature procedures. A solution of 11 (400 μL, 1 mM in acetonitrile (ACN) was added to 20 mL of PBS (pH 7.4, 10 mM). […] Additional ACN was added to make the final solution contain 10% of ACN. The resulting mixture was incubated at 37° C. for 30 min. CO release was monitored by the formation of 11a using HPLC. The experiment was triplicated, and the results are reported as mean±SD (n=3).

[2] = Stability in the absence of ROS (HPLC); format: physicochemical
Procedure: Initially, 11 was employed to screen its sensitivity towards various ROS. […] The stability was tested by adding a solution of 11/12 (800 μL, 500 μM in acetonitrile) was added to 20 mL of PBS (pH 7.4, 10 mM) in a vial. Additional acetonitrile was added to make the final concentration of ACN 10% for all solutions. The resulting solution was incubated at 37° C. for 48 h. The solution was then analyzed using HPLC. All the experiments were triplicated, and the results are reported as mean±SD (n=3).

physchem = format: physicochemical
Procedure: A solution of 10/11 (20 μM) and NaClO (40 or 60 μM) in 10% of ACN in PBS (pH=7.4) was sealed and incubated at 37° C. At each defined time point, 500 μL of the reaction mixture was taken out and added into a vial containing Na2SO3 (100 μL, 250 mM) to quench the reaction. The resulting solution was then analyzed by HPLC (column: Waters C18 3.5 μM, 4.6×100 mm, injection loop volume: 20 μL). CO release was determined by monitoring the formation of the product and the consumption of the reaction intermediate as in the case of 10 or prodrug 11. The mobile phase was acetonitrile ACN/H2O (containing 0.05% trifluoroacetic acid).

Raw264.7 cells = assay: Fluorescent imaging of CO release of 11 with COP-1, with or without LPS; format: cell-based; conditions: Raw 264.7 cells, 11 50 μM + COP-1 1 μM + LPS 1 μg/mL, 5 hours
Procedure: For imaging studies of 11 in transformed macrophage cells, RAW 264.7 cells were seeded in 6-well plates one day before the imaging experiment. Compounds were dissolved in DMSO as stock solution. Final concentration of 1 μM COP-1, 50 μM of 11 and 1 μg/mL of LPS were added into the cell culture. The cells without 11 was used as the negative control. After adding the compound, the cells were incubated at 37° C. for 5 hours. The cells were then fixed and taken for fluorescent images under the FITC channel (excitation: 490 nm, emission: 525 nm) using a Zeiss fluorescent microscope.

H9C2 cells [3] = assay: Fluorescent imaging of CO release of 11 with COP-1; format: cell-based; conditions: 11 50 μM + COP-1 1 μM
Procedure: (§1) Hela or H9C2 cells were seeded in 6-well plates one day before the imaging experiment. Compound 11 was dissolved in DMSO as stock solution. Final concentrations of 1 μM for COP-1 and […] were added into the cell culture. The sample without 11 was used as the negative control. After adding the compound, the cells were incubated at 37° C. for 5 hours. The cells were then fixed and taken for fluorescent images under the FITC channel (excitation: 490 nm, emission: 525 nm) using a Zeiss fluorescent microscope.

Hela cells [4] = assay: Fluorescent imaging of CO release of 11 with COP-1; format: cell-based; conditions: 11 50 μM + COP-1 1 μM, 5 hours
Procedure: as §1

H9C2 cells [5] = assay: Crystal violet assay, co-treatment with doxorubicin and cytotoxicity; format: cell-based
Procedure: (§2) Towards this end, Hela cells and H9C2 cells were co-treated with 11/12 and Dox for 24 h. Then the cells were subjected to crystal violet assay for cytotoxicity evaluation. The cells treated with 11/12, or Dox only were used as controls. Additionally, the cells co-treated with Dox and compound 10a/11a/11b were employed as additional controls as well.
Hela cells and H9C2 cells were seeded in 96-well plates and cultured in DMEM supplemented with 10% FBS and 1% penicillin/streptomycin at 37° C. under 5% CO2 for 24 h. The cells were either incubated with doxorubicin (1% DMSO DMEM solution, 0 to 4 μM) or a mixture of doxorubicin and indicated compounds (1% DMSO DMEM solution, 0 to 4 μM for doxorubicin) for 24 h. After removal of the medium, the plate was washed with 150 μL/well of PBS and the cell was fixed with 4% paraformaldehyde for 1 h at room temperature. The solution in the well was then removed and 100 μL of 0.5% crystal violet staining solution was added to each well. […] Absorbance at 615 nm was then measured by using a Perkin Elmer 1420 multi-label counter. Cell viability was measured and the results were normalized to the vehicle group. The experiment was triplicated and the results are expressed as mean±SD (n=3).

Hela cells [6] = tested on: Hela cells
Procedure: as §2
(§3) Hela cells and H9C2 cells were seeded in 96-well plates and cultured in DMEM supplemented with 10% FBS and 1% penicillin/streptomycin at 37° C. under 5% CO2 for 24 h. The cells were either incubated with doxorubicin (1% DMSO DMEM solution, 0 to 4 μM) or a mixture of doxorubicin and indicated compounds (1% DMSO DMEM solution, 0 to 4 μM for doxorubicin) for 24 h. After removal of the medium, the plate was washed with 150 μL/well of PBS and the cell was fixed with 4% paraformaldehyde for 1 h at room temperature. The solution in the well was then removed and 100 μL of 0.5% crystal violet staining solution was added to each well. After incubation for 15 min at room temperature, the plate was washed with 200 μL of DI water for each well twice, followed by the addition of 100 μL/well of acetic acid solution (33%) to dissolve the dye. Absorbance at 615 nm was then measured by using a Perkin Elmer 1420 multi-label counter. Cell viability was measured and the results were normalized to the vehicle group. The experiment was triplicated and the results are expressed as mean±SD (n=3).

Hela cells [7] = assay: Crystal violet assay, co-treatment with doxorubicin; conditions: 24 h; for synergistic effects with Dox in killing Hela cells: co-treatment with Dox
Procedure: as §2, §3

Raw 264.7 cells = assay: Cytotoxicity against Raw 264.7 cells (Cell Counting Kit-8); format: cell-based; conditions: concentrations up to 50 μM, 24 h of incubation
Procedure: All CO prodrugs were initially screened for their cytotoxicity against Raw 264.7 cells. […] Then RAW 264.7 cells were incubated in DMEM containing 1% DMSO and compounds (0-50 μM) for 24 hours. Then 10 μL of Cell Counting Kit-8 solution was added to each well and incubated for another three hours at 37° C. The absorbance at […] was measured by using a microplate reader.

porcine liver esterase = assay: CO release kinetics in the presence of porcine liver esterase (HPLC); format: in vitro ADME
Procedure: […] At each defined time point, 250 μL of the reaction mixture was taken out and added into a vial containing 500 μL ethanol. The mixture was incubated in an acetone dry ice bath (−78° C.) for 5 min, and centrifuged for 9 min (14.5×1000 rp) to precipitate the esterase out. The resulting supernatant was then analyzed by HPLC (column: Waters C18 3.5 μM, 4.6×100 mm, injection loop volume: 20 μL). […] The mobile phase was acetonitrile CH3CN/H2O (containing 0.05% trifluoroacetic acid).

[8] = CO release kinetics of 38 with or without H2O2 (HPLC); format: physicochemical; conditions: 20% of DMSO/PBS, 37° C., read-out: beta-elimination half-life (converted)
Procedure: Solutions of 38 (20 μM) in 20% of DMSO/PB S was incubated with or without H2O2 (270 μM) at 37° C. Aliquots were taken for HPLC analysis to determine CO release kinetics by monitoring the formation of compound 25. HPLC was conducted using a Waters C18 column (3.5 LM, 4.6x 100 mm) equipped with a 20-μL injection loop and acetonitrile:water (85:15) as the mobile phase.

## COC(=O)C1([Se]c2ccccc2)CC2(C)C(=O)C1(C)C(c1ccccc1)=C2c1ccccc1 (stereo not drawn) [Compound 11, Methyl-1,4-dimethyl-7-oxo-5,6-diphenyl-2-(phenylselanyl)bicyclo[2.2.1]hept-5-ene-2-carboxylate]
[1]; hydrogen peroxide (H2O2, 1 mM), 37° C.
  transformation within 30 min: less than 5%
[1]; hydroxyl radical (HO., 500 μM), 37° C.
  transformation within 30 min: less than 5%
[1]; hypochlorite (40 μM) at 37° C.
  time to complete transformation from 11 to 11a: 30 min
[1]; hypochlorite (ClO−), singlet oxygen (1O2) and O2−, 37° C.
  sensitivity towards ROS: very sensitive
[1]; tert-butoxy radical (tBuO·, 500 μM), 37° C.
  transformation within 30 min: less than 5%
[1]; tert-butyl hydroperoxide (TBHP, 500 μM), 37° C.
  transformation within 30 min: less than 5%
[2]; absence of hypochlorite, 48 h of incubation
  formation of 11a: no formation of 11a was observed
physchem; pH 7.4
  half-life at 20 µM: ~30 s
Raw264.7 cells
  intracellular CO release (green fluorescence) with LPS vs without LPS: significantly enhanced green fluorescence
H9C2 cells [3]
  intracellular CO release: negligible CO release
Hela cells [4]
  intracellular CO release (green fluorescence) compared with H9C2 cells: much enhanced green fluorescence
H9C2 cells [5]; H9C2 cells, co-treatment with Dox, 24 h
  synergistic effects with Dox in killing H9C2 cells: no synergistic effects were observed
Hela cells [6]
  cell viability, compound only: no decrease in cell viability was observed
Hela cells [7]; Hela cells
  synergistic effects with Dox in killing Hela cells: synergistically

## CC12CC([Se]c3ccccc3)(C(=O)NCCC[P+](c3ccccc3)(c3ccccc3)c3ccccc3)C(C)(C1=O)C(c1ccccc1)=C2c1ccccc1 (stereo not drawn) [Compound 12, (3-(1,4-dimethyl-7-oxo-5,6-diphenyl-2-(phenylselanyl)bicyclo [2.2.1]hept-5-ene-2-carboxamido)propyl)triphenylphosphonium]
[2]; 10% ACN in PBS (pH 7.4), 37° C., 48 hours
  stability in the absence of ROS: very stable
H9C2 cells [5]; 5 μM, 24 h of incubation
  cytotoxicity against H9C2 cells: showed toxicity
Hela cells [7]; Hela cells, 2 μM Dox in combination with 12 (2.5 μM)
  cell viability: around 20%
Hela cells [7]; Hela cells
  synergistic effects with Dox in killing Hela cells: synergistically
Hela cells [7]; Hela cells, without Dox (0-μM group)
  cell viability, compound only: no decrease in cell viability was observed

## C[C@@]12C(=O)[C@](C)(C(c3ccccc3)=C1c1ccccc1)C(S(=O)(=O)c1ccccc1)C2C=O (stereo partly drawn) [Compound 7, (1S,4S)-1,4-dimethyl-7-oxo-5,6-diphenyl-3-(phenylsulfonyl)bicyclo-[2.2.1]hept-5-ene-2-carbaldehyde]
Raw 264.7 cells
  cytotoxicity (cell viability): no cytotoxicity was observed

## COC(=O)C1([Se]c2ccccc2)CC2(C)CC1(C)C(c1ccccc1)=C2c1ccccc1 (stereo not drawn) [Compound 11b, methyl 1,4-dimethyl-5,6-diphenyl-2-(phenylselanyl)bicyclo-[2.2.1]hept-5-ene-2-carboxylate, reference compound]
Hela cells [7]; Hela cells
  synergistic effects with Dox in killing Hela cells: no synergistic effects were observed

## CC(=O)OC(OC(C)=O)C1C(S(=O)(=O)c2ccccc2)[C@]2(C)C(=O)[C@]1(C)C(c1ccccc1)=C2c1ccccc1 (stereo partly drawn) [Compound 24a, ((1S,4S)-1,4-Dimethyl-7-oxo-5,6-diphenyl-3-(phenylsulfonyl)bicyclo [2.2.1]hept-5-en-2-yl)methylene diacetate]
Porcine liver esterase; porcine liver esterase (3 U/mL), 5% of DMSO in PBS (pH 7.4), 37° C.
  time to total consumption of prodrug (to form compound 23): ≤ 2 min

## CC12CC([Se]c3ccccc3)C(C)(C1=O)C(c1ccccc1)=C2c1ccccc1 (stereo not drawn) [Compound 10, 1,4-dimethyl-2,3-diphenyl-5-(phenylselanyl)bicyclo[2.2.1]hept-2-en-7-one]
physchem; 20 µM, pH 7.4
  half-life of selenoxide elimination / CO release: around 4 h
physchem; initial hypochlorite concentration of 40 μM, 37° C.
  time to finish the oxidation step: 30 s

## CC(C)(C)C(=O)OC(OC(=O)C(C)(C)C)C1C(S(=O)(=O)c2ccccc2)[C@]2(C)C(=O)[C@]1(C)C(c1ccccc1)=C2c1ccccc1 (stereo partly drawn) [Compound 24d, ((1S,4S)-1,4-Dimethyl-7-oxo-5,6-diphenyl-3-(phenylsulfonyl)bicyclo [2.2.1]hept-5-en-2-yl)methylene bis(2,2-dimethylpropanoate)]
Porcine liver esterase; in the presence of PLE, after 24 h of incubation
  esterase-mediated hydrolysis: no hydrolysis was observed

## CCCCCSC1C(C=O)C2(C)C(=O)C1(C)C(c1ccccc1)=C2c1ccccc1 (stereo not drawn) [Compound 38]
[8]; 20% DMSO in PBS with H2O2 (270 µM), H2O2 (270 μM)
  half-life at 20 µM: ~1.5 h
[8]; 20% DMSO in PBS, without H2O2
  half-life at 20 µM: ~24 h

## Cc1ccc(C)c(-c2ccccc2)c1-c1ccccc1 [Compound 10a, 3′,6′-Dimethyl-1,1′:2′,1″-terphenyl]
Hela cells [7]; Hela cells
  synergistic effects with Dox in killing Hela cells: no synergistic effects were observed

## COC(=O)c1cc(C)c(-c2ccccc2)c(-c2ccccc2)c1C [Compound 11a, Methyl 3′,6′-dimethyl-[1,1′:2′,1″-terphenyl]-4′-carboxylate]
Hela cells [7]; Hela cells
  synergistic effects with Dox in killing Hela cells: no synergistic effects were observed

## COc1cccc2c1C(=O)c1c(O)c3c(c(O)c1C2=O)C[C@@](O)(C(=O)CO)C[C@@H]3O[C@H]1C[C@H](N)[C@H](O)[C@H](C)O1 [Dox, doxorubicin, reference compound]
Hela cells [7]; Homo sapiens, HeLa, read-out: cell viability
  viability at 2 µM: ~80%
